# Experiments:
# Format in all cases: in vivo
# wheat = assay: Test Example 4: effect on crop by soil treatment (symbol e)
# Summary of the method: (§1)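 Steps: fill box with sterilized diluvial soil; sow seed spot-like; cover with ~1.5 cm soil; grow in greenhouse (25° C. to 30° C.).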
# Scirpus juncoides = assay: Test Example 2: herbicidal activity, application during weed generation in submerged conditions (symbol B); conditions: Table 23, grade 0-5 by criteria of Test Example 1
# Summary of the method: (§2)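 Visual herbicidal ratings, taken three weeks after dosing, reflect post-emergence water-surface application to seedlings at one to two leaves. Conditions: co-sown weeds in alluvial soil flooded to 4 cm, greenhouse held at 25° C. to 30° C.; compound given as water-diluted emulsion at a fixed herbicide amount.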
# beet [1] = assay: Test Example 5: effect on crop by foliage application, plastic box (symbol f); conditions: 3 weeks after application
# Summary of the method: (§3)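 Soil: sterilized diluvial. Container: plastic box, 21 × 13 cm, 7 cm deep. Sowing: spot-like, ~1.5 cm cover. Growth: greenhouse, 25° C. to 30° C.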
# rice plant = assay: Test Example 5: effect on crop by foliage application, plastic box (symbol b); conditions: 3 weeks after application
# Summary of the method: as §3
# corn = assay: Test Example 4: effect on crop by soil treatment (symbol c)
# Summary of the method: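 Seeds were sown in spots on sterilized diluvial soil in a plastic box and covered with about 1.5 cm of soil. Plants were then grown in a greenhouse at 25° C. to 30° C.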
# Galium spurium [2] = assay: Test Example 5: herbicidal effect by foliage application, plastic box (symbol Q); conditions: 3 weeks after application
# Summary of the method: (§4)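 Seeds were sown in sterilized diluvial soil, covered with about 1.5 cm of soil and grown 14 days in a greenhouse at 25° C. to 30° C. An emulsifiable formulation diluted in water to a set rate was sprayed over foliage, and injury was scored 3 weeks later.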
# Monochoria vaginalis [3] = assay: Test Example 1: herbicidal activity, application before weed generation in submerged conditions (symbol C)
# Summary of the method: (§5)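 Ratings (5: ≥90%, near complete withering; 4: 70–<90%; 3: 40–<70%; 2: 20–<40%; 1: 5–<20%; 0: ≤5%) were assigned 3 weeks after the diluted emulsion was applied to the water surface of freshly sown, submerged pots.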
# Amaranthus retroflexus = assay: Test Example 5: herbicidal effect by foliage application, plastic box (symbol N); conditions: 3 weeks after application
# Summary of the method: as §4
# beet [4] = assay: Test Example 4: effect on crop by soil treatment (symbol f)
# Summary of the method: as §1
# [5] = tested on: Echinochloa oryzacola Vasing.; assay: Test Example 1: herbicidal activity, application before weed generation in submerged conditions (symbol A)
# Summary of the method: as §5
# Monochoria vaginalis [6] = assay: Test Example 2: herbicidal activity, application during weed generation in submerged conditions (symbol C); conditions: Table 23, grade 0-5 by criteria of Test Example 1
# Summary of the method: as §2
# Abutilon theophrasti = assay: Test Example 4: herbicidal effect by soil treatment (symbol M)
# Summary of the method: (§6)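 Seeds were sown in sterilized diluvial soil, covered with about 1.5 cm of soil, and the soil surface was sprayed with a water-diluted emulsion of the compound at a predetermined rate. Plants grew in a greenhouse at 25° C. to 30° C.; effects were scored visually 3 weeks after application.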
# Alopecurus myosuroides = assay: Test Example 5: herbicidal effect by foliage application, plastic box (symbol J); conditions: 3 weeks after application
# Summary of the method: as §4
# Lolium multiflorum Lam. = assay: Test Example 5: herbicidal effect by foliage application, plastic box (symbol K); conditions: 3 weeks after application
# Summary of the method: as §4
# [7] = tested on: Echinochloa oryzacola Vasing.; assay: Test Example 2: herbicidal activity, application during weed generation in submerged conditions (symbol A); conditions: Table 23, grade 0-5 by criteria of Test Example 1
# Summary of the method: as §2
# Setaria viridis = assay: Test Example 4: herbicidal effect by soil treatment (symbol G)
# Summary of the method: as §6
# Galium spurium [8] = assay: Test Example 4: herbicidal effect by soil treatment (symbol Q)
# Summary of the method: as §6
# [9] = application herbicide amount 320 g/ha
# [10] = application herbicide amount 102 g/ha
SMILES,"Herbicidal effect grade, B: Scirpus juncoides (Scirpus juncoides; [9])","Herbicidal effect grade, C: Monochoria vaginalis (Monochoria vaginalis [6]; [9])","Herbicidal effect grade, A: Echinochloa oryzacola Vasing. [7, 9]","Effect on crop grade, e: wheat (wheat; [9])","f: beet, effect on crop grade (beet [1]; 320 g/ha)","b: directly sowed rice plant, effect on crop grade (rice plant; 320 g/ha)","Effect on crop grade, c: corn (corn; [9])","Q: Galium spurium, herbicidal effect grade (Galium spurium [2]; 320 g/ha)",C (Monochoria vaginalis) herbicidal effect grade (Monochoria vaginalis [3]; [9]),"N: Amaranthus retroflexus, herbicidal effect grade (Amaranthus retroflexus; 320 g/ha)","Effect on crop grade, f: beet (beet [4]; [9])","A (Echinochloa oryzacola Vasing.) herbicidal effect grade [5, 9]","Herbicidal effect grade, M: Abutilon theophrasti (Abutilon theophrasti; [9])","J: Alopecurus myosuroides, herbicidal effect grade (Alopecurus myosuroides; 320 g/ha)","K: Lolium multiflorum Lam., herbicidal effect grade (Lolium multiflorum Lam.; 320 g/ha)","Herbicidal effect grade, G: Setaria viridis (Setaria viridis; [9])","Herbicidal effect grade, Q: Galium spurium (Galium spurium [8]; [9])",other results
CC(CC1CC(O)=C(c2c(C)cc(C)cc2C)C1=O)=NOCC(C)Cl (stereo not shown) [1-121],4 (Herbicidal ratio of 70% or higher and lower than 90%),1 (Herbicidal ratio of 5% or higher and lower than 20%),5 (Herbicidal ratio of 90% or more (almost completely withered)),,,,,,,,,,,,,,,"e: wheat, effect grade on crop (wheat; 320 g/ha): 0 (Herbicidal ratio of 5% or lower (almost no effect)); f: beet, effect on crop (criteria 0-5) (beet [1]; 320 g/ha): 0 (Herbicidal ratio of 5% or lower (almost no effect)); b: directly sowed rice plant, effect on crop (criteria 0-5) (rice plant; 320 g/ha): 5 (Herbicidal ratio of 90% or more (almost completely withered)); c: corn, effect grade on crop (corn; 320 g/ha): 1 (Herbicidal ratio of 5% or higher and lower than 20%); Q: Galium spurium, herbicidal effect (criteria 0-5) (Galium spurium [2]; 320 g/ha): 0 (Herbicidal ratio of 5% or lower (almost no effect)); Herbicidal effect grade, C: Monochoria vaginalis (Monochoria vaginalis [3]; [9]): 3 (Herbicidal ratio of 40% or higher and lower than 70%); N: Amaranthus retroflexus, herbicidal effect (criteria 0-5) (Amaranthus retroflexus; 320 g/ha): 0 (Herbicidal ratio of 5% or lower (almost no effect)); f: beet, effect grade on crop (beet [4]; 320 g/ha): 0 (Herbicidal ratio of 5% or lower (almost no effect)); Herbicidal effect grade, A: Echinochloa oryzacola Vasing. [5, 9]: 5 (Herbicidal ratio of 90% or more (almost completely withered)); M: Abutilon theophrasti, herbicidal effect grade (Abutilon theophrasti; 320 g/ha): 0 (Herbicidal ratio of 5% or lower (almost no effect)); J: Alopecurus myosuroides, herbicidal effect (criteria 0-5) (Alopecurus myosuroides; 320 g/ha): 5 (Herbicidal ratio of 90% or more (almost completely withered)); K: Lolium multiflorum Lam., herbicidal effect (criteria 0-5) (Lolium multiflorum Lam.; 320 g/ha): 5 (Herbicidal ratio of 90% or more (almost completely withered)); G: Setaria viridis, herbicidal effect grade (Setaria viridis; 320 g/ha): 5 (Herbicidal ratio of 90% or more (almost completely withered)); Q: Galium spurium, herbicidal effect grade (Galium spurium [8]; 320 g/ha): 0 (Herbicidal ratio of 5% or lower (almost no effect))"
CON=C(C)CC1(C)CC(O)=C(c2c(C)cc(C)cc2C)C1=O (mixture of isomers) [11-002],0 (Herbicidal ratio of 5% or lower (almost no effect)),0 (Herbicidal ratio of 5% or lower (almost no effect)),2 (Herbicidal ratio of 20% or higher and lower than 40%),0 (Herbicidal ratio of 5% or lower (almost no effect)),0 (Herbicidal ratio of 5% or lower (almost no effect)),5 (Herbicidal ratio of 90% or more (almost completely withered)),1 (Herbicidal ratio of 5% or higher and lower than 20%),0 (Herbicidal ratio of 5% or lower (almost no effect)),0 (Herbicidal ratio of 5% or lower (almost no effect)),0 (Herbicidal ratio of 5% or lower (almost no effect)),0 (Herbicidal ratio of 5% or lower (almost no effect)),2 (Herbicidal ratio of 20% or higher and lower than 40%),0 (Herbicidal ratio of 5% or lower (almost no effect)),5 (Herbicidal ratio of 90% or more (almost completely withered)),5 (Herbicidal ratio of 90% or more (almost completely withered)),1 (Herbicidal ratio of 5% or higher and lower than 20%),0 (Herbicidal ratio of 5% or lower (almost no effect)),
COc1cc(Br)cc(C)c1C1=C(O)CC(CC(=O)C2CC2)C1=O (racemic) [14-001],0 (Herbicidal ratio of 5% or lower (almost no effect)),1 (Herbicidal ratio of 5% or higher and lower than 20%),5 (Herbicidal ratio of 90% or more (almost completely withered)),,0 (Herbicidal ratio of 5% or lower (almost no effect)),5 (Herbicidal ratio of 90% or more (almost completely withered)),,0 (Herbicidal ratio of 5% or lower (almost no effect)),3 (Herbicidal ratio of 40% or higher and lower than 70%),0 (Herbicidal ratio of 5% or lower (almost no effect)),,4 (Herbicidal ratio of 70% or higher and lower than 90%),,5 (Herbicidal ratio of 90% or more (almost completely withered)),5 (Herbicidal ratio of 90% or more (almost completely withered)),,,"e: wheat, effect on crop grade (wheat; [9]): 0 (Herbicidal ratio of 5% or lower (almost no effect)); c: corn, effect on crop grade (corn; [9]): 5 (Herbicidal ratio of 90% or more (almost completely withered)); f: beet, effect on crop grade (beet [4]; [9]): 0 (Herbicidal ratio of 5% or lower (almost no effect)); M: Abutilon theophrasti, herbicidal effect grade (Abutilon theophrasti; [9]): 0 (Herbicidal ratio of 5% or lower (almost no effect)); G: Setaria viridis, herbicidal effect grade (Setaria viridis; [9]): 5 (Herbicidal ratio of 90% or more (almost completely withered)); Q: Galium spurium, herbicidal effect grade (Galium spurium [8]; [9]): 0 (Herbicidal ratio of 5% or lower (almost no effect))"
CC(CC1CC(O)=C(c2c(C)cc(-c3ccc(Cl)cc3)cc2C)C1=O)=NOCC(F)(F)F (stereo not shown) [9-024],3 (Herbicidal ratio of 40% or higher and lower than 70%),1 (Herbicidal ratio of 5% or higher and lower than 20%),3 (Herbicidal ratio of 40% or higher and lower than 70%),2 (Herbicidal ratio of 20% or higher and lower than 40%),0 (Herbicidal ratio of 5% or lower (almost no effect)),5 (Herbicidal ratio of 90% or more (almost completely withered)),0 (Herbicidal ratio of 5% or lower (almost no effect)),4 (Herbicidal ratio of 70% or higher and lower than 90%),2 (Herbicidal ratio of 20% or higher and lower than 40%),1 (Herbicidal ratio of 5% or higher and lower than 20%),0 (Herbicidal ratio of 5% or lower (almost no effect)),5 (Herbicidal ratio of 90% or more (almost completely withered)),0 (Herbicidal ratio of 5% or lower (almost no effect)),5 (Herbicidal ratio of 90% or more (almost completely withered)),5 (Herbicidal ratio of 90% or more (almost completely withered)),5 (Herbicidal ratio of 90% or more (almost completely withered)),0 (Herbicidal ratio of 5% or lower (almost no effect)),
"CC(=O)CC1CC(O)=C(c2c(C)cc(C)cc2C)C1=O (stereo not shown) [2-001, 3-hydroxy-2-mesityl-5-(2-oxopropyl)cyclopent-2-enone]",,,,,,,,,,,,,,,,,,"e: wheat, effect grade on crop (wheat; 102 g/ha): 0 (Herbicidal ratio of 5% or lower (almost no effect)); Herbicidal effect grade, B: Scirpus juncoides (Scirpus juncoides; [10]): 0 (Herbicidal ratio of 5% or lower (almost no effect)); f: beet, effect on crop grade (beet [1]; 102 g/ha): 1 (Herbicidal ratio of 5% or higher and lower than 20%); b: directly sowed rice plant, effect on crop grade (rice plant; 102 g/ha): 4 (Herbicidal ratio of 70% or higher and lower than 90%); c: corn, effect grade on crop (corn; 102 g/ha): 4 (Herbicidal ratio of 70% or higher and lower than 90%); Q: Galium spurium, herbicidal effect grade (Galium spurium [2]; 102 g/ha): 3 (Herbicidal ratio of 40% or higher and lower than 70%); Herbicidal effect grade, C: Monochoria vaginalis (Monochoria vaginalis [3]; [10]): 0 (Herbicidal ratio of 5% or lower (almost no effect)); N: Amaranthus retroflexus, herbicidal effect grade (Amaranthus retroflexus; 102 g/ha): 2 (Herbicidal ratio of 20% or higher and lower than 40%); f: beet, effect grade on crop (beet [4]; 102 g/ha): 0 (Herbicidal ratio of 5% or lower (almost no effect)); Herbicidal effect grade, A: Echinochloa oryzacola Vasing. [5, 10]: 4 (Herbicidal ratio of 70% or higher and lower than 90%); Herbicidal effect grade, C: Monochoria vaginalis (Monochoria vaginalis [6]; [10]): 0 (Herbicidal ratio of 5% or lower (almost no effect)); M: Abutilon theophrasti, herbicidal effect grade (Abutilon theophrasti; 102 g/ha): 3 (Herbicidal ratio of 40% or higher and lower than 70%); J: Alopecurus myosuroides, herbicidal effect grade (Alopecurus myosuroides; 102 g/ha): 5 (Herbicidal ratio of 90% or more (almost completely withered)); K: Lolium multiflorum Lam., herbicidal effect grade (Lolium multiflorum Lam.; 102 g/ha): 5 (Herbicidal ratio of 90% or more (almost completely withered)); Herbicidal effect grade, A: Echinochloa oryzacola Vasing. [7, 10]: 0 (Herbicidal ratio of 5% or lower (almost no effect)); G: Setaria viridis, herbicidal effect grade (Setaria viridis; 102 g/ha): 4 (Herbicidal ratio of 70% or higher and lower than 90%); Q: Galium spurium, herbicidal effect grade (Galium spurium [8]; 102 g/ha): 0 (Herbicidal ratio of 5% or lower (almost no effect))"

# Reference: patent publication US11000033B2, “Ketone or oxime compound, and herbicide” (NISSAN CHEMICAL CORPORATION, priority 2014, dated 2021)
